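Growth conditions: 96-well plates. Treatment: test compound, 48 hours, 5 concentrations. Analysis: linear interpolation between bracketing concentrations; unreached endpoints set to highest concentration. GI50 is the concentration that inhibits growth by half.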 Active and inactive are the calls of the source. Cut-off read from the data, not from the text of the source: active = GI50 up to about 1.1 µM and inactive = higher.

One may read the GI50 as the concentration giving 50% growth inhibition.

Among the test systems are Malme-3M; T47D; 786-0; OVCAR-3; SK-OV-3; COLO 205; SR; TK-10; UACC-62; SN12C; RXF 393; HCT-15; PC-3; NCI-H23; RPMI-8226; SF-295; SNB-19; HL-60; SNB-75; HOP-92.
What all share (test): DTP human tumour cell line panel, 48 h

As for `CC(=O)c1c(C)[n+]([O-])c2cc(Cl)c(Cl)cc2[n+]1[O-]`, the GI50 is 6.58 µM (inactive) in the assay with Malme-3M; 12.7 µM (inactive) in the assay on T47D; 27.5 µM (inactive) in the assay on 786-0; 19.9 µM (inactive) in the assay on OVCAR-3; 19.4 µM (inactive) with SK-OV-3; 15.7 µM (inactive) in the assay on COLO 205. The GI50 with SR is 6.75 µM (inactive); in the assay on TK-10, 16.9 µM (inactive); with UACC-62 it was 18.4 µM (inactive); with SN12C, 20.2 µM (inactive); in the assay on RXF 393 it was > 100 µM (inactive); with HCT-15, 12.2 µM. The GI50 with PC-3 was 17.7 µM (inactive); with NCI-H23 it was 26.4 µM (inactive); in the assay with RPMI-8226, 5.5 µM (inactive); with SF-295, 26.5 µM (inactive); with SNB-19 it was 30.8 µM (inactive); in the assay on HL-60, 10.4 µM (inactive).
Take `CC(C)c1ccc2c(c1)/C(=C1/Nc3ccccc3/C1=N/O)C(=O)N2`: the GI50 is 3.72 µM (inactive) in the assay with Malme-3M; 3.88 µM (inactive) in the assay on T47D; 4.85 µM (inactive) with 786-0; 7.46 µM (inactive) with OVCAR-3; 6.55 µM (inactive) with SK-OV-3; 5.22 µM (inactive) in the assay with COLO 205. The GI50 was 2.61 µM (inactive) in the assay on SR; 12.7 µM (inactive) in the assay on SNB-75; 9.4 µM (inactive) with TK-10; 8.57 µM (inactive) in the assay on UACC-62; 5.22 µM (inactive) with SN12C; 2.07 µM (inactive) in the assay with RXF 393. The concentration for 50% growth inhibition (GI50) was 3.98 µM with HCT-15; 6.64 µM (inactive) in the assay with PC-3; 3.93 µM (inactive) in the assay with NCI-H23; 4.17 µM (inactive) in the assay with RPMI-8226; 2.13 µM (inactive) with SF-295; 16.4 µM (inactive) in the assay on SNB-19.
With `CCN(CC)CCOC(c1cc(OC)ccc1OC)c1ccc2n1-c1ccccc1OC2` (stereo unspecified), the GI50 in the assay with Malme-3M is 18.5 µM (inactive); with T47D it was 24 µM (inactive); in the assay on 786-0 it was 15.6 µM (inactive); in the assay on HOP-92 it was 1.89 µM (inactive); with OVCAR-3, 15.7 µM (inactive); in the assay on COLO 205, 5.42 µM (inactive). Moreover, the GI50 is 2.31 µM (inactive) in the assay on SNB-75; 12.1 µM (inactive) in the assay with TK-10; 2.39 µM (inactive) with UACC-62; 2.48 µM (inactive) with SN12C; 8.91 µM (inactive) with RXF 393; 11.5 µM in the assay with HCT-15. Also, the GI50 in the assay on PC-3 was 12.8 µM (inactive); in the assay with NCI-H23, 12.9 µM (inactive); in the assay on RPMI-8226, 3.44 µM (inactive); in the assay with SF-295, 10.4 µM (inactive); in the assay with SNB-19 it was 15.7 µM (inactive); with HL-60, 13.2 µM (inactive).
Regarding `COc1ccccc1/C(=N\OCCC(=O)O)c1cccs1`, the GI50 with Malme-3M, in the assay on T47D, in the assay with 786-0, with HOP-92, in the assay with OVCAR-3 and in the assay on SK-OV-3 was > 100 µM (inactive) in each case. The GI50 in the assay on COLO 205, in the assay with SNB-75, with TK-10, with UACC-62, in the assay on SN12C and in the assay on RXF 393 was > 100 µM (inactive) in each case. Besides, the GI50 is above 100 µM in the assay on HCT-15; > 100 µM (inactive) in the assay on PC-3; > 100 µM (inactive) in the assay on NCI-H23; > 100 µM (inactive) in the assay on RPMI-8226; > 100 µM (inactive) in the assay on SF-295; > 100 µM (inactive) in the assay on SNB-19. Moreover, the GI50 with HL-60 was > 100 µM (inactive).
In the case of `Cc1cccc2c(N)c3cccc(C(=O)NCC[N+](C)(C)[O-])c3nc12`, the GI50 in the assay with Malme-3M is 12.7 µM (inactive); in the assay with T47D it was 13.8 µM (inactive); in the assay on 786-0, 2.46 µM (inactive); in the assay on HOP-92, 10.5 µM (inactive); in the assay on OVCAR-3, 16.1 µM (inactive); in the assay with SK-OV-3, 14 µM (inactive). The GI50 is 9.57 µM (inactive) with COLO 205; 1.32 µM (inactive) in the assay with SNB-75; 21.8 µM (inactive) in the assay on TK-10; 8.99 µM (inactive) in the assay with UACC-62; 3.64 µM (inactive) in the assay with SN12C; 12.6 µM (inactive) in the assay on RXF 393. In addition, the 50% growth inhibitory concentration (GI50) was 11.3 µM with HCT-15; 13.5 µM (inactive) with PC-3; 3.76 µM (inactive) in the assay with NCI-H23; 9.44 µM (inactive) with RPMI-8226; 6.76 µM (inactive) in the assay with SF-295; 7.87 µM (inactive) with SNB-19. Also, the GI50 in the assay on HL-60 was 4.05 µM (inactive).
Turning to `COC(=O)C(=O)C(C(=O)C(=O)Nc1ccccc1C(=O)OC)c1nc2ccc(C(=O)c3ccccc3)cc2nc1O` (stereo unspecified), the GI50 in the assay on Malme-3M is 76.9 µM (inactive); in the assay on T47D, 38.3 µM (inactive); with 786-0, > 100 µM (inactive); in the assay with HOP-92 it was > 100 µM (inactive); in the assay on OVCAR-3 it was > 100 µM (inactive); with SK-OV-3, 60.7 µM (inactive). In addition, the GI50 in the assay with SNB-75 is 24.2 µM (inactive); in the assay on TK-10, > 100 µM (inactive); in the assay on UACC-62, > 100 µM (inactive); in the assay on SN12C it was 64.7 µM (inactive); in the assay with RXF 393, 33.4 µM (inactive); in the assay with HCT-15 it was 46.8 µM. In addition, the GI50 with PC-3 was 40.4 µM (inactive); in the assay on NCI-H23, 64.3 µM (inactive); with RPMI-8226 it was 51.9 µM (inactive); in the assay on SF-295, 47.2 µM (inactive); in the assay on HL-60, 41 µM (inactive).
For the molecule `COc1ccccc1-n1cnc2c1=NC(C)(C)NC=2C(N)=O`, the GI50 in the assay on Malme-3M, with T47D, in the assay on 786-0, with OVCAR-3, with SK-OV-3 and in the assay with COLO 205 was > 100 µM (inactive) each time. Moreover, the GI50 in the assay on SR, in the assay on SNB-75, in the assay on TK-10, in the assay with UACC-62, in the assay on SN12C and in the assay with RXF 393 was > 100 µM (inactive) throughout. The GI50 in the assay with HCT-15 was above 100 µM; with PC-3, > 100 µM (inactive); with NCI-H23 it was > 100 µM (inactive); in the assay with RPMI-8226, > 100 µM (inactive); with SF-295, > 100 µM (inactive); in the assay with SNB-19, > 100 µM (inactive). Also, in the assay on HL-60, the GI50 is > 100 µM (inactive).
Turning to `CCn1cc(C(=O)O)c(=O)c2cc3c(cc21)S(=O)(=O)CC3`, the GI50 with Malme-3M, with T47D, in the assay with 786-0, in the assay on HOP-92, with OVCAR-3 and with SK-OV-3 was > 100 µM (inactive) throughout. Further, the GI50 with COLO 205, in the assay with SNB-75, with TK-10, with UACC-62, with SN12C and with RXF 393 was > 100 µM (inactive) each time. Besides, the GI50 with HCT-15 is above 100 µM; with PC-3, > 100 µM (inactive); in the assay with NCI-H23 it was > 100 µM (inactive); in the assay with RPMI-8226, > 100 µM (inactive); in the assay on SF-295 it was > 100 µM (inactive); with SNB-19 it was > 100 µM (inactive). For the same molecule, the GI50 in the assay on HL-60 was > 100 µM (inactive).
As for `CC1CNC(c2ccc(COc3ccc(C4=NC(C)CN4)cc3)cc2)=N1` (stereo unspecified), the GI50 with Malme-3M is 27.6 µM (inactive); in the assay on T47D it was 15.5 µM (inactive); in the assay with 786-0 it was > 100 µM (inactive); in the assay with HOP-92, > 100 µM (inactive); in the assay with OVCAR-3, 34.9 µM (inactive); in the assay on SK-OV-3, 73.1 µM (inactive). In addition, the GI50 was > 100 µM (inactive) in the assay on COLO 205; 13.2 µM (inactive) in the assay on SNB-75; 65.9 µM (inactive) in the assay on TK-10; 26.2 µM (inactive) in the assay on UACC-62; 17.6 µM (inactive) in the assay on SN12C; 58.6 µM (inactive) in the assay with RXF 393. For the same molecule, the GI50 with HCT-15 was above 100 µM; in the assay with PC-3, 32.1 µM (inactive); in the assay on NCI-H23 it was 53.3 µM (inactive); with RPMI-8226 it was 29.9 µM (inactive); with SF-295, 43.4 µM (inactive); in the assay with SNB-19, 50.1 µM (inactive). For the same molecule, the GI50 with HL-60 is > 100 µM (inactive).
As for `CC1(C)[C@@H]2C[C@H]1c1cnc(-c3ccccn3)cc1C2CCCCC[C@@H]1c2cc(-c3ccccn3)ncc2[C@@H]2C[C@H]1C2(C)C` (stereo partly specified), the GI50 with Malme-3M is 3.19 µM (inactive); with T47D it was 1.69 µM (inactive); in the assay on 786-0, 0.493 µM (active); in the assay with OVCAR-3 it was 0.404 µM (active); with COLO 205 it was 0.578 µM (active); in the assay on SR it was 0.653 µM (active). The GI50 with SNB-75 was 0.74 µM (active); in the assay with TK-10 it was > 49.2 µM (inactive); with UACC-62, 0.946 µM (active); in the assay with SN12C, 1.53 µM (inactive); in the assay with RXF 393, 0.745 µM (active); with HCT-15, 5.9 µM. Moreover, the GI50 is 1.32 µM (inactive) in the assay on PC-3; 1.82 µM (inactive) with NCI-H23; 2.51 µM (inactive) in the assay with RPMI-8226; 0.871 µM (active) in the assay with SF-295; 1.78 µM (inactive) with SNB-19; 0.426 µM (active) with HL-60.
In the case of `OB1OCc2ccccc21` [BENZOXABOROLE], the GI50 is > 100 µM (inactive) with Malme-3M; > 100 µM (inactive) with T47D; 39.7 µM (inactive) with 786-0; 60.4 µM (inactive) in the assay with OVCAR-3; 16.1 µM (inactive) in the assay with SK-OV-3; 33.7 µM (inactive) in the assay on COLO 205. In addition, the GI50 in the assay on SR was 52.7 µM (inactive); with TK-10, 38.9 µM (inactive); in the assay on UACC-62 it was 35.9 µM (inactive); with SN12C, 39.7 µM (inactive); in the assay with HCT-15, 24.7 µM; with PC-3, 20 µM (inactive). Besides, the GI50 in the assay on NCI-H23 is 36.7 µM (inactive); with RPMI-8226, 18.2 µM (inactive); with SF-295 it was 12.1 µM (inactive); in the assay on SNB-19, 60.8 µM (inactive); in the assay on HL-60 it was > 100 µM (inactive).

The values are drawn from ChEMBL document CHEMBL1201862, “PubChem BioAssay data set” (2004).
